Results: US20230226231A1, “CONJUGATED AND LABELLED APELIN, PREPARATION AND USES THEREOF” (UNIVERSITE D'AIX MARSEILLE, priority 2020, published 2023)

What was measured:
[1] = system: Human colon adenocarcinoma xenografts (T84 cells); test: MicroPET imaging in ectopic mouse model of human colon adenocarcinoma, baseline and blocking; assay type: in vivo, mice
Procedure: Human colon adenocarcinoma xenografts were established by subcutaneous injections of 1×10^6 T84 cells into 6-week-old male Swiss nude mice (Charles River) under 2% isoflurane anesthesia.
PET images were acquired 1 h after IV injection on a Mediso NanoPET/CT under 2% isoflurane anesthesia.

APJ = target: T1, APJ (Homo sapiens, UniProt P35414); test: Autoradiography with blocking strategy on T84 cells; assay type: cell-based; details: 100-fold excess of unconjugated Apelin13(F13A)
T1 construct: host or cells: T84 human colon adenocarcinoma cells
T1 sequence (P35414 1-380): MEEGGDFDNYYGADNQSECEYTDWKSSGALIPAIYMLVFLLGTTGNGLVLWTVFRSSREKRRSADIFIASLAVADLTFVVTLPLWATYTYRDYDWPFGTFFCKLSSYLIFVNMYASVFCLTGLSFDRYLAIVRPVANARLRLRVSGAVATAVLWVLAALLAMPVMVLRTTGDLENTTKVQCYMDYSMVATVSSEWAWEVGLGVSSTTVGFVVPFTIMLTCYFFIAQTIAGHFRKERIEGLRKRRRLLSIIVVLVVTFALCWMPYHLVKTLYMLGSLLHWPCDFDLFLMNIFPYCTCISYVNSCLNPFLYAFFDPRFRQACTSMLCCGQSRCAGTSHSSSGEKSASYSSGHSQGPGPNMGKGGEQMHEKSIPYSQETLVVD
Procedure: A blocking strategy was performed on cells expressing the highest level of APJ. This strategy consists in adding a large excess (100-fold) of unconjugated peptide (Apelin13(F13A)) before adding inventors' product of interest. Unspecific tracer was eliminated by several washes. The remaining activity, considered as specifically bound to the target, was evaluated by autoradiography.
T84 cell line (EuroBioDev) was cultivated in DMEM-F12/Glutamax medium complemented with 10% fetal bovine serum decomplemented and 1% antimycotic-antibiotic mix. Cell lines were maintained in a humidified 5% CO2 incubator at 37° C.

[2] = Hydrophilicity, water-octanol partition/distribution coefficient method; assay type: physicochemical; details: 1-octanol / phosphate-buffered saline pH 7.4
Procedure: Hydrophilicity of [^67Ga]Ga-AP747 was assessed by the water-octanol partition/distribution coefficient method. In a centrifuge tube, 500 μL of 1-octanol was added to 500 μL of phosphate-buffered saline (pH 7.4) containing the radiolabeled peptide (50 kBq). After equilibrium, the solution was vigorously stirred for 5 min at room temperature and subsequently centrifuged (4000 rpm, 5 min) to yield two immiscible layers. Aliquots of 100 μL were taken from each layer and the radioactivity in the samples was determined by a gamma counter (Perkin Elmer, Waltham, Mass., USA).

APJ receptor, T84 cells = target: T2, APJ receptor, T84 cells (Homo sapiens, UniProt P35414); test: In vitro internalization study in T84 cells; assay type: cell-based
T2 construct: host or cells: T84 human colon adenocarcinoma cells
T2 sequence (P35414 1-380): T1 sequence (P35414 1-380)
Procedure: (§1) T84 cells were cultured as described in saturation binding experiments above.
Three minutes before the end of the incubation time, internalization was stopped on ice and the supernatant was removed. Internalization was then stopped by eliminating the supernatant and each well was washed with 3×250 μL of ice-cold PBS. The membrane-bound fraction was retrieved in 2×250 μL sodium acetate buffer (20 mM, pH 5) for 5 min. Finally, cells were treated with 500 μL of NaOH (1 M). The radioactivity of the membrane-bound fraction and the internalized fraction was measured in a gamma counter. The experiment was performed twice. To also verify receptor specificity, blocking experiments were performed by using 1 μM of apelin-13.

T84 cells = test: In vitro efflux study on T84 cells; assay type: cell-based, human
Procedure: as §1
Three minutes before the end of the incubation time, internalization was stopped on ice and the supernatant was removed. Each well was washed with 1 mL of ice-cold PBS. The membrane-bound fraction was retrieved in 2 mL sodium acetate buffer (20 mM, pH 5) for 2 min, each well was rinsed a second time with 1 mL ice-cold PBS and fresh culture medium was added. At each time point (10, 30, 60 and 120 minutes), the efflux was stopped by collecting the medium and washing cells twice with ice-cold PBS. Finally, cells were treated with NaOH (1 M). The radioactivity of the collected culture medium supernatant, the PBS wash fractions, and the total internalized fraction was measured in a gamma counter. The experiment was performed twice.

ischemic limb = test: MicroPET imaging in mouse model of hindlimb ischemia; assay type: in vivo, mice
Procedure: Unilateral hindlimb ischemia was performed on 9-week-old male Swiss mice (Janvier Labs) after femoral artery excision under 2% isoflurane anesthesia. LASER Doppler perfusion imaging (Perimed, Craponne, France) was used to assess revascularization from day 0 to day 21 after surgery. Perfusion results are expressed as a ratio of ischemic to non-ischemic limb blood flow. Hindlimb ischemic damage was quantified on Days 1, 3, 7, 10, 13 and 21.
(§2) On hindlimb ischemia mouse model (n=8) and Matrigel mouse model (n=7) on day 1, 3, 7, 10, 13 and 21 post-surgery, mice were IV injected with 5-10 MBq of ^68Ga-NODAGA-Apelin13(F13A) under 2% isoflurane anesthesia.
(§3) PET images were acquired 60 min after IV injection on a Mediso Nanoscan PET/CT under 2% isoflurane anesthesia. On hindlimb ischemia mouse model and on day 1, 3, 7, 10, 13 and 21 post-surgery, mice were IV injected with 5-10 MBq of [^68Ga]Ga-NODAGA-RGD2 injection under 2% isoflurane anesthesia. PET images were acquired 60 min after IV injection on a Mediso Nanoscan PET/CT under 2% isoflurane anesthesia.
(§4) Quantitative region-of-interest (ROI) analysis of the PET images was performed on attenuation- and decay-corrected PET images using InVicro—VivoQuant software and tissue uptake values are presented as an ischemic muscle to contralateral muscle ratio and as a percentage of the injected dose per gram of tissue (% ID/g) which was determined by decay correction for each sample normalized to a standard of known weight, which was representative of the injected dose.

[3] = MicroPET biodistribution study in healthy mice; assay type: in vivo; details: IV injection, up to 2 h
Procedure: For biodistribution study in healthy mice (n=3), images were continuously acquired just after ^68Ga-NODAGA-Apelin13(F13A) IV injection with 5-6 MBq and recorded up to 2 h post injection on a Mediso NanoPET/CT under 2% isoflurane anesthesia.
as §4

[4] = Stability of radiolabelled tracer in human serum; assay type: in vitro ADME
Procedure: Determination of radiochemical purity was done by radio-thin-layer chromatography (ITLC-SG) and was performed using a Ray-test miniGITA radio-TLC scanner detector (Straubenhardt, Ge) (eluents, 1:1 [v/v] mixture of 1M aqueous ammonium acetate solution and methanol and also in Trisodium Citrate 0,1M). Evaluation of ^68Ga-NODAGA-Apelin13(F13A) stability was performed in human serum at 60 and 120 min after radiosynthesis.

Matrigel plug = test: MicroPET imaging in Matrigel mouse model; assay type: in vivo, mice
Procedure: These mice were also subcutaneously implanted with Matrigel (Dutscher) supplemented with 10% fetal bovine serum under 2% isoflurane anesthesia.
as §2, §3, §4

[5] = PET signal ratio on day 7, corrected with non-ischemic limb

**Q.** Which “tolerance of cold peptide in in vivo blocking experiments” value ([1]; due to cardiovascular effects of Apelin) does the source give for `CSCC[C@H](NC(=O)[C@@H]1CCCN1C(=O)CNC(=O)[C@H](CCCCN)NC(=O)[C@H](Cc1c[nH]cn1)NC(=O)[C@H](CO)NC(=O)[C@H](CC(C)C)NC(=O)[C@H](CCCNC(=N)N)NC(=O)[C@@H]1CCCN1C(=O)[C@H](CCCNC(=N)N)NC(=O)[C@@H](N)CCC(N)=O)C(=O)N1CCC[C@H]1C(=O)N[C@@H](C)C(=O)O` [Apelin13(F13A), reference compound] here?
**A.** bad tolerance

**Q.** With “AP747: AP747 corresponds to NODAGA-Apelin13(F13A); used radiolabelled in the autoradiography” as the compound, how does the “remaining activity recorded by autoradiography in blocking condition compared to classic conditions” value (APJ) read?
**A.** significantly reduced

**Q.** Which results are given for “[^67Ga]Ga-AP747: NODAGA-Apelin13(F13A) radiolabelled with gallium-67, used for in vitro binding, internalization and efflux studies”?
**A.** log D7.4 [2]: −3.03±0.02; internalized fraction of the cell associated radioactivity (maximum) (APJ receptor, T84 cells; 37° C., at 60 min): 79.7±7.3%; receptor specific membrane-bound fraction (APJ receptor, T84 cells; at any time point (10, 30, 60 min)): < 5%; efflux: fraction of the total binding externalized (T84 cells; 10 minutes post-internalization): 66.7±1.7%; efflux: fraction of the total binding externalized (T84 cells; at 2 h): 81.2±2.9%

**Q.** Which “relation of PET signal in ischemic limb to day-input function (LASER Doppler Day7/Day0)” value (ischemic limb; PET signal on day 7, corrected with non-ischemic limb) does the source give for “[^68Ga]Ga-NODAGA-Apelin13(F13A): Apelin-13(F13A) peptide (SEQ ID NO: 5) conjugated to chelator NODAGA and radiolabelled with gallium-68; PET tracer of APJ” here?
**A.** not linked

**Q.** What about the “correlation of PET signal in ischemic limb with LASER-Doppler signal at day of surgery” value (ischemic limb; [5]) of the same compound?
**A.** significantly negatively correlated

**Q.** And the “relation of PET signal in ischemic limb to reperfusion (LASER-Doppler Day 21/Day 0)” value (ischemic limb; [5])?
**A.** more important when reperfusion is longer

**Q.** And the “PET signal in ischemic limb compared with [68Ga]Ga-NODAGA-RGD2” value (ischemic limb; at peak)?
**A.** notably better

**Q.** What about the “day of peak PET signal in ischemic limb” value (ischemic limb; ischemic limb corrected by non-ischemic limb, post-surgery) of the same compound?
**A.** 7 days

**Q.** And the “partial blocking of PET signal in in vivo blocking experiments” value ([1]; pre-saturation with cold Apelin13(F13A), angiogenic and tumoral models)?
**A.** about 50%

**Q.** What about the “excretion and organ accumulation (PET signal quantification in organs)” value ([3]; n=3) of the same compound?
**A.** fast and mainly urinary excretion without noticeable accumulation in liver, lungs or brain

**Q.** What about the “excretion and organ accumulation (PET signal quantification in organs)” value ([3]; n=3, listed as (F13A)Apelin-NODAGA-^68Ga) of the same compound?
**A.** Rapid urinary and hepatic elimination

**Q.** And the “radiochemical purity after incubation in human serum” value ([4]; human serum, until two hours post-incubation, n=3)?
**A.** didn't lead to significant tampering

**Q.** What about the stability in serum ([4]; serum) of the same compound?
**A.** up to 2 hours

**Q.** And the “PET signal in Matrigel compared with [68Ga]Ga-NODAGA-RGD2, globally over experiment period” value (Matrigel plug; day 1 to day 21)?
**A.** significantly superior

**Q.** What about the “accumulation in Matrigel plug compared with [68Ga]Ga-NODAGA-RGD2” value (Matrigel plug; day 10, day 13 and day 21, PET 60 min after IV injection) of the same compound?
**A.** significantly higher
